Experimental data from patent publication EP1026237B1, “Use of an inhibitor of Tau/neurofilament protein kinase PK40” (Massachusetts Institute Of Technology, priority 1991, dated 1993).
Values joined by “and” are separate entries in the source; they are usually repeats but may differ in a detail not shown here. Identical values can stand only once.

Tests used:
[1] = test system: PK36; test: 32P kinase assay, ATP dependence and inhibition of PK36 activity with dephosphorylated NF-M as substrate; format: biochemical, bovine; settings: % of control
Experimental: An alternative method for assaying the phosphorylating activity of the kinases was by ^32P assays. Radioactive assays in the same buffer system as for immunoassays contained 5 µg of HTP-purified native NF-triplet as substrate (3µg of substrate proteins other than NFs) and 150-250 cpm/pmole gamma-^32P-ATP. […] The glass filters were washed twice for 1 hour and once for at least 3 hours in 10% TCA/2% PPA and finally in ethanol and were air-dried. Radioactivity was assessed by scintillation counting (Beckman LS 230) with 5 ml "Liquiscint" (National Diagnostics) for 20 minutes. Assays were routinely carried out in triplicate except for some duplicate assays in a few explicitly mentioned cases; a control assay lacking NFs was subtracted from the mean value.

[2] = test system: PK40; test: 32P kinase assay, ATP dependence and inhibition of PK40 activity with dephosphorylated NF-M as substrate; format: biochemical, bovine; settings: for relative activity [%] of PK40: % of control
Experimental: An alternative method for assaying the phosphorylating activity of the kinases was by ^32P assays. Radioactive assays in the same buffer system as for immunoassays contained 5 µg of HTP-purified native NF-triplet as substrate (3µg of substrate proteins other than NFs) and 150-250 cpm/pmole gamma-^32P-ATP. Incubation times were 15 minutes at 37°C for activities up to about 1 pmole/min/assay, since the assay responses were linear within these time intervals. Assays were stopped by cooling on ice, addition of 20 µl 25 mM EDTA and immediate transfer of the mixture onto glass filters (Whatman GF/A) wetted with 10% TCA/2% sodium pyrophosphate (PPA). The glass filters were washed twice for 1 hour and once for at least 3 hours in 10% TCA/2% PPA and finally in ethanol and were air-dried. Radioactivity was assessed by scintillation counting (Beckman LS 230) with 5 ml "Liquiscint" (National Diagnostics) for 20 minutes. Assays were routinely carried out in triplicate except for some duplicate assays in a few explicitly mentioned cases; a control assay lacking NFs was subtracted from the mean value.
The ATP dependence and inhibition of the activities of PK40 and PK36 were determined at 2 mM Mg^2+ with soluble dephosphorylated NF-M as second substrate to avoid uncertainties arising from the aggregation state of NF-triplet in suspension. The optima were at 0.5 - 1 mM ATP for both kinases. Apparent Km values for ATP of both kinases were estimated from Woolf-Hanes plots (Dixon and Webb, 1979) for a range of ATP concentrations sufficiently below the onset of inhibition. […] The apparent Km of PK36 was approximately 50 µM.

[3] = molecular target: KSP-phosphorylating kinases; test: Immuno-dotblot assay (SMI-31/SMI-34) of crude enzyme with dephosphorylated NF-triplet; format: biochemical, bovine; settings: ATP [5mM]
Experimental: The preferred method for the immunoassay for detecting KSP-phosphorylating kinases is as follows. Dephosphorylated NF-triplet protein was incubated with the 35-45% ammonium sulfate fraction of the brain supernatant (see section B.). Immuno-dotblot assays were performed in 50 mM HEPES, pH 7.0, 2 mM MgCl2, […], 2 mM DTT in a total volume of 30 µl with 5 µg of dephosphorylated native NF-triplet or 1.2 µg of dephosphorylated pure subunits NF-M or NF-H as substrates together with a control assay lacking NFs. After incubation at 37°C for 18 hours, assays were diluted to 100 µl with 10 mM PBS, pH 7.2, and aliquots of 50 µl were spotted on nitrocellulose (0.22µm, Schleicher and Schüll). Blots were blocked by 1 hour incubation with 3% BSA in 10mM PBS, pH 7.2, and washed once in 0.5% Triton-X100/10 mM PBS. Antibodies were diluted in sterile 10 mM PBS, pH 7.2, 0.5% Triton-X100, 10% fetal calf serum. Blots were incubated with SMI mAbs for at least 2 hours. The blots were then washed five times. Mouse mAbs were detected by reaction with horseradish-peroxidase-linked goat-anti-mouse antibody (Cappel Co.) in 1:200 dilution and by staining with 0.05% 4-chloro-1-naphthol (Sigma) and 0.05% H2O2 in 50 mM TBS, pH 7.5, 33% ethanol for 5-20 minutes. All incubations and washes were at room temperature. Incubations were sealed in plastic bags with 50 µl of solution/cm^2 membrane. […]

[4] = molecular target: kinase PK40 (bovine brain) (bovine); test: cell-based or functional assay

Compound: [Cl-].[Na+] [NaCl, sodium chloride]
- relative activity [%] of PK36 ([1]; NaCl 150mM, 15 min, 150000 µM): 40% and 40±0.8%
- relative activity [%] of PK40 ([2]; NaCl 150mM, 15 min, 150000 µM): 27% and 27±1.8%

Compound: ATP
- relative activity [%] of PK36 ([1]; 5mM Mg^2, 5mM ATP): 38±2.2%
- relative activity [%] of PK40 ([2]; 5mM Mg^2, 5mM ATP): 78±7.1%
- inhibition of PK40 by an excess of ATP ([2]; ATP in relatively small excess over Mg^2+): strongly inhibited
- Km ([2]; PK40, 2 mM Mg^2+, Woolf-Hanes plots, mean ± S.D. of three determinations at three NF-M concentrations, read-out: apparent Km value for ATP): 93 ± 12 µM
- kinase activity (reconstitution of SMI-31 and SMI-34 epitopes) [3]: inhibited

Compound: Walsh inhibitor
- relative activity [%] at Walsh Inhibitor 1.5 [M, as printed] (% of the control) [4]: 107
- relative activity [%] at Walsh Inhibitor 4.5 [M, as printed] (% of the control) [4]: 102
- relative activity [%] at Walsh Inhibitor 45 [M, as printed] (% of the control) [4]: 101
